Columns and labels:
FGF-1 = FGF-1 (Homo sapiens, UniProt P05230); assay: Growth factor binding assay (SPR solution affinity), FGF-1; settings: SPR, HBS-EP buffer, 25° C.; read-out: Kd FGF-1
RSV = assay: Anti-RSV screening assay (viral plaques); type: cell-based; settings: 100 μg/mL, viral plaques relative to mock treated controls
Experimental: (§1) African green monkey kidney (GMK AH1) cells^46 were cultured in Eagle's minimum essential medium (EMEM) supplemented with 2% calf serum, 0.05% Primaton RL substance (Kraft Inc., Norwich, USA) and antibiotics. Human epidermoid carcinoma (HEp-2) cells were cultured in Dulbecco's modified EMEM (DMEM) supplemented with 10% fetal calf serum and antibiotics. […] The RSV strain A-2^50 was used. The RSV stock was prepared as described by Hallak et al.^51 and stored at −70° C. in the presence of 40% sucrose^52.
(§2) The viral infectivity (the plaque number-reduction) assay and the plaque size-reduction assay were carried out as described previously^17. […] Subsequently, the cells were washed with 2 mL of EMEM and overlaid with 1% methylcellulose solution in EMEM. The plaques were visualized by staining with crystal violet solution after 2 (HSV-2) or 3 (HSV-1) days of incubation at 37° C. […] When the compounds were screened for anti-HSV or anti-RSV activity, mixtures of 200 PFU of the virus and the test compound (100 μg/mL) in serum-free EMEM were incubated for 10 min at room temperature before addition to cells and during the entire period of viral infection of cells and the development of viral plaques. In the plaque size-reduction assay, the compounds were added to cells (in methylcellulose overlay medium) after 2 h period of virus infection of cells in the absence of the inhibitor. After 2-3 days of incubation at 37° C., the viral plaques were visualized by staining the cells with 1% solution of crystal violet. For each compound tested, the images of twenty neighboring plaques were captured using a Leica DC300 digital camera attached to a Leitz-Wetzlar Diavert microscope. The area of each plaque was determined using IM500 image software (Leica). Similar protocols were used for RSV, except that the assays were performed in HEp-2 cells and DMEM supplemented with 2% heat-inactivated fetal calf serum was used instead of EMEM.

GMK AH1 cells = assay: Cytotoxicity assay, GMK AH1; type: cell-based, African green monkey; settings: cell viability reduced by 50%
Experimental: The assay was performed in GMK AH1 cells that had been seeded in 96 well cluster plates and reached approximately 80-90% confluence at day 2 of culture. The cells were washed with EMEM and incubated for 24 h at 37° C. with 100 μL of serial two-fold dilutions of the test compound in serum-free EMEM. The effect of the test compound on cell viability was measured by using the tetrazolium-based CellTiter96 assay according to the manufacturer's protocol (Promega, Madison, Wis., USA).

HSV-1 [1] = assay: Viral plaque number-reduction assay, HSV-1; settings: GMK AH1 cells
Experimental: as §1, §2

HSV-2 [2] = assay: Anti-HSV screening assay (viral plaques), HSV-2; type: cell-based; settings: 100 μg/mL, viral plaques relative to mock treated controls
Experimental: as §1, §2

HSV-2 [3] = assay: Viral plaque number-reduction assay, HSV-2; settings: GMK AH1 cells
Experimental: as §1, §2

[4] = target: T1, recombinant human heparanase (Homo sapiens, UniProt Q9Y251); assay: Heparanase inhibition assay (fondaparinux cleavage, WST-1); settings: read-out: Ki Heparanase; IC50 converted into Ki; fondaparinux 100 μM, pH 5.0
T1 sequence (Q9Y251 158-543 limits assumed): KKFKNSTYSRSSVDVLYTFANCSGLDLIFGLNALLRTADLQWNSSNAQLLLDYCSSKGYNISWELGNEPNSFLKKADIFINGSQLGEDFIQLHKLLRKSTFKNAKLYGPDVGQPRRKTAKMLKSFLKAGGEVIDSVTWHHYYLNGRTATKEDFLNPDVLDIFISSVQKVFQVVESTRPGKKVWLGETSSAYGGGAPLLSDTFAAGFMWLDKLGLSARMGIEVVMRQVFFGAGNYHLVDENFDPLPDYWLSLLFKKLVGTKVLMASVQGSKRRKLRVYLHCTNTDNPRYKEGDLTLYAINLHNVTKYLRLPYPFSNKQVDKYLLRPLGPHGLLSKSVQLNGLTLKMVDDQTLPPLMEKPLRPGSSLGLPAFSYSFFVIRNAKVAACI
T1 sequence (Q9Y251 36-109 limits assumed): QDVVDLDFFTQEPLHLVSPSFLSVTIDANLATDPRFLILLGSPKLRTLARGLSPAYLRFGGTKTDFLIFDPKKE

VEGF = target: T2, VEGF (Homo sapiens, UniProt P15692); assay: Growth factor binding assay (SPR solution affinity), VEGF; settings: HBS-EP buffer, 25° C.
T2 sequence (P15692 207-395): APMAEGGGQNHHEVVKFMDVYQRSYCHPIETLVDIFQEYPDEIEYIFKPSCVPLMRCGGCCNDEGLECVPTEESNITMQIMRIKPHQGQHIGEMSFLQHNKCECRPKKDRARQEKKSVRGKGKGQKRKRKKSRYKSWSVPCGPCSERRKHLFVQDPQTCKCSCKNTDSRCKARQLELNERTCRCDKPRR
Summary of the method: (§3)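 Kd measured by SPR solution affinity: fixed growth factor with varying ligand competing for heparin-coated sensorchip, 25 °C. Buffer HBS-EP pH 7.4 (150 mM NaCl) for FGF-1 and VEGF; FGF-2 with 0.3 M NaCl. Duplicate values averaged.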

FGF-2 = FGF-2 (Homo sapiens, UniProt P09038); assay: Growth factor binding assay (SPR solution affinity), FGF-2; settings: SPR, HBS-EP buffer containing 0.3 M NaCl, 25° C.; read-out: Kd FGF-2
FGF-2, sequence (P09038 143-288, species assumed): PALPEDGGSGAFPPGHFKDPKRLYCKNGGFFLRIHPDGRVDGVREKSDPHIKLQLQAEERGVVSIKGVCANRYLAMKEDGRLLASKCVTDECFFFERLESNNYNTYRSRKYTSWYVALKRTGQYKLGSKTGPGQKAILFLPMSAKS
Summary of the method: as §3

HSV-1 [5] = assay: Anti-HSV screening assay (viral plaques), HSV-1; type: cell-based; settings: 100 μg/mL, viral plaques relative to mock treated controls
Experimental: as §1, §2

FGF-1, sequence (P05230 whole entry, species assumed): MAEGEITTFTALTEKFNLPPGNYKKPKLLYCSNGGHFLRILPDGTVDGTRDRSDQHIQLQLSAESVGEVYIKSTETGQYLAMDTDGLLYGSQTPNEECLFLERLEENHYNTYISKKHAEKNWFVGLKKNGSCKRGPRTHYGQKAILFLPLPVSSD

O=S(=O)(O)OCC1OC(OC2C(OCCCCCCCCCCCCn3cc(-c4cccc5ccccc45)nn3)OC(COS(=O)(=O)O)C(OS(=O)(=O)O)C2OS(=O)(=O)O)C(OS(=O)(=O)O)C(OC2OC(COS(=O)(=O)O)C(OS(=O)(=O)O)C(OC3OC(COS(=O)(=O)O)C(OS(=O)(=O)O)C(OC4OC(COS(=O)(=O)O)C(OS(=O)(=O)O)C(OS(=O)(=O)O)C4OS(=O)(=O)O)C3OS(=O)(=O)O)C2OS(=O)(=O)O)C1OS(=O)(=O)O [Compound 11, 12-(4-Naphthalen-1-yl-[1,2,3]triazol-1-yl)dodecyl 2,3,4,6-tetra-O-sodium sulfonato-α-D-mannopyranosyl-(1→3)-2,4,6-tri-O-sodium sulfonato-α-D-mannopyranosyl-(1→3)-2,4,6-tri-O-sodium sulfonato-α-D-mannopyranosyl-(1→3)-2,4,6-tri-O-sodium sulfonato-α-D-mannopyranosyl-(1→2)-3,4,6-tri-O-sodium sulfonato-α-D-mannopyranoside]
Kd (FGF-1): 0.19 ± 0.1 nM
Residual infectivity (%) RSV (RSV): 0%
Cytotoxicity CC50 GMK AH1 (GMK AH1 cells): >400 µg/mL
Selective index CC50/IC50 HSV-1 (HSV-1 [1]): > 222
Residual infectivity (%) HSV-2 (HSV-2 [2]): 0%
Selective index CC50/IC50 HSV-2 (HSV-2 [3]): > 444
Ki [4]: 4.8 ± 1.8 nM
Kd (VEGF): 0.79 ± 0.24 nM
Kd (FGF-2): 73 ± 23 nM
Residual infectivity (%) HSV-1 (HSV-1 [5]): 0%

— US20150065440A1 (Progen Pharmaceuticals Limited, priority 2007, published 2015)
